This is an account of results in PMC2866172 (Journal of medicinal chemistry, 2010).

One may read the fraction unbound as the share of the substance not bound to proteins or other matrix.

Structures are written as SMILES. Read-outs that look alike come from different tables or passages of the source.

The conditions of data set [1]: mice, [14C]INH, 10 mg/kg s.c., cited from earlier work.
For data set [2] the following is noted: humans, cited from earlier work.
The conditions of data set [3]: about 3 h after i.v. administration of 108.7 mg INH, [14C]INH tracer; cited from earlier work.
Data set [4] is described as follows: PPB determination in pooled baboon plasma.
For data set [5] the following is noted: patients with inflamed meninges, single 3 g oral dose; cited from earlier work.
Data set [6] is described as follows: Brain PET imaging in anesthetized baboons. The note with it: healthy baboons, i.v., TAC, AUC and image.
A further data set in a line: in vitro. The settings on record: monkey, plasma.
For data set [7] the following is noted: monkeys, 6 h after i.v. administration of [14C]RIF; cited from earlier work.
For data set [8] the following is noted: patients, 150 mg oral dose, cited from earlier work.

Take `NNC(=O)c1ccncc1` [INH, isoniazid]: the “INH concentration in brain” value is reported as 4.4 µg/g in [1] (30 min) and 3.2 µg/g in [1] (60 min). The “INH CSF concentration” value was 1.9 µg/mL in data set [2] (8.5 mg/kg oral dose, 2 h) and 0.31 µg/mL in data set [2] (108.7 mg oral dose, 1 h). For the same compound, the “INH concentration in surgically removed normal human lung” value in data set [3] was 1.79 µg/g. The same compound gave a fraction unbound at 10 min in data set [4] (monkey, pooled plasma) of 0.946.

Turning to `NC(=O)c1cnccn1` [PZA, pyrazinamide], the “CSF concentration of PZA” value in data set [5] is 50 µg/mL. Besides, the Blood-brain barrier penetration result in [6] is “excellent penetration”. In addition, the “PPB (value expressed as % of free fraction in plasma)” value in data set [4] (pooled baboon plasma, 10 min room temperature, % unbound) was 91.32%.

Regarding `CO[C@H]1/C=C/O[C@@]2(C)Oc3c(C)c(O)c4c(O)c(c(/C=N/N5CCN(C)CC5)c(O)c4c3C2=O)NC(=O)/C(C)=C\C=C\[C@H](C)[C@H](O)[C@@H](C)[C@@H](O)[C@@H](C)[C@H](OC(C)=O)[C@@H]1C` [RIF, rifampicin], the fraction unbound at 10 min in “in vitro” turned out to be 0.273. Also, in data set [7], the “RIF concentration in heart” value is on record as 10.11 µg/g, the “RIF concentration in kidney” value is recorded as 14.69 µg/g, the “RIF concentration in liver” value is 60.41 µg/g and the “RIF concentration in lung” value is on record as 8.32 µg/g. For the same compound, the RIF bile concentration result in [8] (3–5 h) is recorded as “up to 538.5 µg/ml”. Moreover, the “RIF concentration in the liver” value in data set [8] is 22 to 35 µg/mL.
